Patent publication US20230220480A1, “IRON-SCORE AND IN VITRO METHOD FOR IDENTIFYING HIGH RISK DLBCL SUBJECTS AND THERAPEUTIC USES AND METHODS” (CENTRE NATIONAL DE LA RECHERCHE SCIENTIFIQUE (CNRS), priority 2019, published 2023)
Read-outs that look alike come from different tables or passages of the source.

Legend:
[1] = test system: OCI-LY3 and DB DLBCL cells; experiment: ROS production, CM-H2DCFDA staining; format: cell-based, human
OCI-LY3 = experiment: Cell viability assay (CellTiter-Glo, ATP quantification); format: cell-based, human; settings: OCI-LY3, 96H; read-out: IC50
Experimental: (§1) FIG. 3: Iron chelators and Ironomycin inhibit DLBCL cell growth DLBCL cells were incubated with different concentrations of iron chelators or vehicle for 96H. Inhibitory concentration 50% (IC50) was calculated with concentration-response curve after treatment with Deferoxamin (A), Deferasirox, (B) and Ironomycin (C). Cell viability was examined using quantification of ATP assay. Data are expressed as mean percentage+/−SEM of at least three independent experiments performed in sixplicate.
(§2) The 16 DLBCL cell lines (U2932, OCI-LY-3, NU-DHL-1, OCI-LY-19, DB, SUDHL4, OCILY1, SUDHL5, DOHH2, SUDHL10, HT, RI-1, SU-DHL-6, NUDUL-1, WSU-DLCL-2 and OCI-LY-7) were purchased from the DSMZ (Leibniz-Institut DSMZ—Deutsche Sammlung von Mikroorganismen und Zellkulturen GmbH, Germany). They were maintained in RPMI-1640 (Gibco, Invitrogen), supplemented with 10% fetal bovine serum (PAA laboratory GmbH) for U2932, SUDHL-4, HT, DOHH2, SUDHL-10, RI-1, WSU-DLCL-2 cell lines, 20% FBS OCI-LY3, DB, SUDHL-5, NUDHL-1, SU-DHL-6, NUDUL-1 cell lines. OCI-LY1 and OCI-LY7 were cultured in IMDM (Gibco, Invitrogen), supplemented with 20% fetal bovine serum and OCI-LY19 was cultured in MEM alpha modified (Gibco, Invitrogen), supplemented with 20% fetal bovine serum. Cultures were maintained at 37° C. in a humidified atmosphere with 5% CO2.
(§3) DLBCL-derived cell lines were cultured for 4 days in 96-well flat-bottom microtiter plates in RPMI 1640 medium, 10% or 20% FCS (control medium) in the presence of various compounds. The number of viable cells in culture was determined using the CellTiter-Glo Luminescent Cell Viability Assay from Promega, Madison, Wis., USA using a Centro LB 960 luminometer (Berthold Technologies, Bad Wildbad, Germany).
(§4) This test is based on quantitation of the intracellular ATP present, which signals the presence of metabolically active cells. Data are expressed as the mean percentage of six replicates, normalized to the untreated control.

SUDHL-5 = experiment: as above; format: cell-based, human; settings: SUDHL5, 96H; read-out: IC50
Experimental: as §1, §2, §3, §4

DB = experiment: as above; format: cell-based, human; settings: 96H, read-out: IC50
Experimental: as §1, §2, §3, §4

U2932 = experiment: as above; format: cell-based, human; settings: U2932, 96H; read-out: IC50
Experimental: as §1, §2, §3, §4

primary DLBCL cells = settings: for reduction of the median number of viable primary DLBCL cells: N=5 patients, with CD40L
Experimental: Primary samples of DLBCL patients were cultured with their microenvironment recombinant CD40L in presence or absence of 50 nM and 100 nM of Ironomycin. Percentage of malignant DLBCL cells for each individual patients were analyzed by flow cytometry and expressed in % of control (A). […] The effect of Ironomycin alone or in combination with Doxorubicin on normal CD3+ cells was assessed by flow cytometry (C).
Cells are obtained from lymph nodes or blood of 5 patients with DLBCL. Cells from blood are obtained by density gradient separation and cells from lymph node are obtained with a tissues dissociator and qualified by Flow cytometry.
Cells are cultured in Gibco® Iscove's MDM (Glutamax) medium (#31980-022) with 20% FBS with antibiotitcs-antimicotics (Gibco Penicillin-streptomycin-amphotericin B 100X, #15240-096) at a density of 0.5×10^6 Cell/mL with 50 ng/mL of histidine-tagged CD40L (R&D System, 2706-CL) and 5 μg/mL of anti-histidine antibody R&D System, MAB050), Gibco® pyruvate 100X, #1136-039. Cells are seeded 24H after thawing and treated with various compounds during 72H.
Total cells were counted with trypan bleu and stained with the panel CD45 V500 (BD, #560777), Kappa FITC (Dako, F0434), CD19 PE-Cy7 (BD, #341113), Lambda PE (Dako, R0437), CD3 APC-H7 (BD, #641415), CD10 APC (BD, #332777) and CD20 V450 (BD, #655872) and analyzed by flow cytometry (Canto II cytometer, BD Pharmigen).Tumorous population cells were gated on CD19+, CD45+, CD20+, Kappa or lambda and non-tumorous population cells were gated on CD45+,CD19−, and T cells on CD45+, CD3+, CD19−.

16 DLBCL cell lines = experiment: Cell viability assay, panel of 16 DLBCL cell lines; format: cell-based, human; settings: 96H, read-out: IC50 range over all DLBCL cell lines
Description: as §2, with “Cultures were maintained at 37° C. in a humidified atmosphere with 5% CO2.” left out
as §3
This test is based on quantitation of the intracellular ATP present, which signals the presence of metabolically active cells. Data are expressed as the mean percentage of six replicates, normalized to the untreated control. […]

CD34+ cells = experiment: Hematopoietic progenitor colony forming units (CFU) assay; settings: 14 days
Experimental: Hematopoietic progenitor colony-forming units assay were performed with CD34+ cells from apheresis of 5 donors. […] CFU-C, CFU-E and CFU-GM were counted after 14 days culture (C).
Mobilized peripheral blood of donor were collected using an apheresis machine. Cells were CD34+ enriched by immuno-magnetic cell separation and fluorescence activated cell sorting (FACS).
About 250 viable CD34+ cells/mL were cultured in Methocult GF H84434 Medium (Stem Cell, #84434). Using a 3 mL syringe attached to a 16 gauge blunt end needle, 1 mL of the mixture was dispensed into 2 35 mm dishes.
Dishes were incubated at 37° C., in 5% C02, with >95% humidity for 14 days.

[2] = test system: DB and OCI-LY3 DLBCL derived cell-line; experiment: phospho-RPA2 T21 foci immunofluorescence; format: cell-based, human; settings: 50 nM, 24H
Experimental: DB and OCI-LY3 DLBCL derived cell-line was treated with 50 nM Ironomycin during 24H. Immunofluoresence staining for foci of phospho-RPA2 T21, S phase (EdU integration) and DAPI was performed in DLBCL cells. (Magnification x63). Scale bar: 10 μm.
At least 300 cells were counted for each group. Statistical difference was tested using a Fisher's exact test. * P<0.05, ** P<0.01, *** P<0.001, **** P<0.0001. NS: non-significant.

[3] = test system: OCI-LY3 and DB cell lines
Description: The inventors further investigated the effect of Iron supplementation on the cell death induced by these treatments. Iron chelators concentrations were chosen according the maximal plasmatic concentration achievable in the patient (Nisbet-Brown et al., 2003).
Chaetocin was used as positive control of ROS production inhibited by GSH (Isham et al., 2007).

DLBCL cells = experiment: Autophagy, LC3B II puncta; format: cell-based, human; settings: 100 nM, 24H, P<0.0001
DB and OCI-LY3 cells = experiment: DNA fiber assay (replication fork progression); format: cell-based, human
Experimental: DB and OCI-LY3 cells were labeled with IdU, treated with vehicle, gemcitabine (10 μM) or Ironomycin (100 μM) and labeled with CIdU (30 minutes each), and then harvested for DNA fiber assay (A and B).
DB cells were pretreated or not by deoxynucleotides for 30 minutes, labeled with IdU, treated with vehicle, gemcitabine (10 μM) or Ironomycin (100 μM) and labeled with CIdU (30 minutes each), and then harvested for DNA fiber assay (C and D).
Boxplot represent median±interquartile ranges and dots represent outliers of track length (expressed in μm). Results represent at least 200 track measurements. * P<0.05, **** P<0.0001, NS: non-significant, Mann-Whitney test.
Eukaryotic cells contain numerous iron-requiring proteins such as iron-sulfur (Fe—S) cluster proteins, hemoproteins and ribonucleotide reductases that play key roles in DNA replication and require iron as a cofactor (Zhang, 2014). The inventors next monitored the effect of ironomycin on fork progression in DLBCL cells using DNA fiber analysis. To this end, DLBCL cell lines were pulse labeled with 10 μM IdU and 100 μM CIdU and the length of CIdU tracks was measured to estimate the distance covered by individual forks during the pulse. […] Gemcitabine was used as a positive control. […]

With `C#CCN[C@@H]1C=C[C@]2(O[C@H]([C@@H](CC)C(=O)[C@@H](C)[C@@H](O)[C@H](C)[C@@H]3O[C@@H]([C@@H](CC)C(=O)O)CC[C@@H]3C)[C@@H](C)C[C@H]2C)O[C@@]12CC[C@@](C)([C@H]1CC[C@](O)(CC)[C@H](C)O1)O2` [Ironomycin] the “inhibition of induced ROS production by ferrostatin and GSH” value [1] was “partially inhibited by ferrostin but not by gluthation (GSH)”, the ROS production ([1]; CM-H2DCFDA staining) was “induces ROS production” and the IC50 (OCI-LY3) was 16.8 nM. It also gave an IC50 (SUDHL-5) of 28.9 nM, an IC50 (DB) of 17.2 nM and an IC50 (U2932) of 30.4 nM. The “reduction of the median number of viable primary DLBCL cells” value (primary DLBCL cells; 50 nM) was 63.1%, the “reduction of the median number of viable primary DLBCL cells” value (primary DLBCL cells; 100 nM) was 67.1% and the “toxicity in DLBCL cells compared to normal cells from the microenvironment” value (primary DLBCL cells; primary samples, 50 nM and 100 nM) was “higher toxicity”. The IC50 (16 DLBCL cell lines) was 7.2 to 91.5 nM, the “toxicity on CFU-C, CFU-E and CFU-GM formation” value (CD34+ cells; 10 nM, N=5) was “no significant toxicity” and the “hematopoietic toxicity compared to conventional chemotherapy” value (CD34+ cells; 50 and 100 nM) was “significant lower hematopoietic toxicity”. The “phosphorylation of RPA2 on threonine 21 (replication stress)” value [2] was “increased phosphorylation of replication protein A sub-unit 2 (RPA2) on threonine 21”, the “caspase activation associated with apoptosis” value [3] was “activation of caspase-3 and −7” and the induction of apoptosis ([3]; Annexin V and PARP cleavage) was “induces apoptosis”. The “effect of iron supplementation on drug-induced apoptosis / cytotoxicity” value ([3]; Iron(III) chloride supplementation) was “did not affect”, the “inhibition of induced apoptosis by Oph-Q-VD pan-caspase inhibitor” value ([3]; P<0.001) was “partially inhibited” and the “LC3B II puncta (autophagy)” value (DLBCL cells) was “clear increase in LC3B II puncta”. The “effect of deoxynucleotide supplementation on replication fork delay” value (DB and OCI-LY3 cells; DB cells pretreated by deoxynucleotides for 30 minutes) was “partially reversed” and the “length of CIdU tracks compared to control cells” value (DB and OCI-LY3 cells; P<0.0001) was “significantly shorter”.
